Series [1] in a line: MTT test, cell viability of A549 cells. In kind it is cell-based, human. The following applies: human, A549 lung epithelial (carcinoma) cells; 10^−5 M; 48 hours; FIG. 6B; read-out: Block of A549 cell viability. As for the experimental part: (§1) The MTT test is a standard assay addressing cell toxicity of a compound. It is based on the principle that after 3-4 hours of cell incubation with MTT (3-(4,5-dimethylthiazole-2-yl)-2,5-diphenyl tetrazolium bromide) so-called purple formazan crystals develop in living and early apoptotic cells. Dead cells don't produce formazan crystals.
(§2) Different cell lines were tested. Unless indicated differently, A549 human lung epithelial cells (derived from lung carcinoma) and L929sA murine fibroblast cells were cultured in DMEM with 10% FCS, 100 U/ml penicillin and 100 μg/ml streptomycin. Unless indicated differently, the human multiple myeloma cell lines L363, U266 and MM1.S were cultured in RPMI 1640 with Glutamax-I, supplemented with 10% FCS, 100 U/ml penicillin and 100 μg/ml streptomycin. Cells were seeded at 5000 cells/well (for adherent A549 and L929sA cells) or at 10000 cells/well (for the multiple myeloma lines in suspension) in 96 well plates. Cells were incubated in the presence of the respective synephrine compounds or vehicle (EtOH; for control test) in a final volume of 0.2 ml for 24 or 48 hours at 37° C. Subsequently, 20 μl of MTT solution (5 mg/ml in phosphate-buffered saline) was added to each well. After 4 hours incubation at 37° C., 80 μl of the extraction buffer (10% SDS, 0.01 M HCl) was added. After overnight incubation at room temperature, the optical densities at 590 nm were measured. Results are illustrated in FIGS. 2 to 6 and are expressed as percentage of viable cells as compared to vehicle-treated controls.
(§3) In a further MTT test, the activity of the synephrine derivatives on the inhibition of cell viability of non-immune cells was measured. […] Tests were performed for 24 hours and for 48 hours. The results are illustrated by FIGS. 5A and 5B for L929 cells, and by FIGS. 6A and 6B for A549 cells. It was observed that CpdA at 10^−5 M blocked cell viability of L929sA and A549 for not more than 10%.

Series [2] relates to A549 human lung epithelial cells. Briefly: MTT test, cell viability of A549 cells. In kind it is cell-based. The method, then:
as §1, §2, §3
For orientation: Tetrazolium assays rely on reduction of a dye to a coloured formazan, in cell work by metabolically active cells.

Series [3] is described as follows: MTT test, cell viability of L929sA fibroblasts. In kind it is cell-based, murine. To be noted: mouse, L929sA fibroblast cells; 10^−5 M; within 48 hours; FIG. 5B; read-out: Block of L929sA cell viability. The method, then:
as §1, §2, §3

Series [4] concerns pE-selectin-Luc (E-selectin promoter). Briefly: pE-selectin-Luc reporter gene assay in TNF-induced L929sA cells. In kind it is cell-based, mouse. To be noted: indicated concentrations, from -2 hours for 8 hours; TNF 2000 IU/ml 6 hours; FIG. 1. From the text:
L929sA mouse fibroblast cells were stably transfected with pE-selectine-Luc (also referred to as pELAM-luc) by the calcium phosphate precipitation procedure described by De Bosscher et al. in Proc. Natl. Acad. Sci. USA (1997) 94, 13504-13509. The co-transfected plasmid pPGKβGeobpA, conferring resistance to G418 and expressing constitutive β-galactosidase enzymatic activity, was used as an internal control. L929sA cells were transiently transfected by the DEAE-dextran transfection method described by De Bosscher et al. (cited supra).
Recombinant murine tumor necrosis factor (TNF) was produced according to a method standard in the art. Dexamethasone (hereinafter abbreviated as DEX) commercially available from Sigma, and 2-(4-acetoxyphenyl)-2-chloro-N-methyl-ethylammonium chloride (hereinafter abbreviated as compound A) was synthesized according to Louw et al. in Biochemical Pharmacology (1997) 53, 189-197). A stock solution was prepared in ethanol (for DEX) or DMSO (for both comparative compound A and for the compound of example 6 according to this invention, i.e. 1-[4-(benzoyloxy)phenyl]-2-[(tert-butoxy-carbonyl)-methylamino]ethyl-1H-imidazole-1-carboxylate), aliquoted and stored at −70° C.
Induction was performed in triplicate for each independent experiment, which was carried out at least twice. Induction with DEX, compound A, and for the compound of example 6 according to this invention at 1 μM, 10 μM or respectively any other indicated concentration were performed at −2 hours for a total of 8 hours, while TNF (2000 IU/ml) was added at time point zero and left on the cells for 6 hours. After induction, cells were lysed with a lysis buffer (commercially available from Tropix, Bedford, Massachussets) and samples were assayed according to the manufacturer's instructions (Promega Biotech).
In order to investigate whether the inhibitory effect of compound A or the compound of example 6 according to this invention is directed at the transcriptional level of NF-κB-driven genes, the NF-κB-dependent physiological promoter construct, pE-selectin-Luc stably integrated into L929sA cells, was tested. […] DEX-mediated and compound A-mediated inhibition of TNF-induced gene expression were used as controls (FIG. 1). In the appended figures, NI stands for non-induced (either in presence of solvent controls like ethanol or DMSO).

Series [5] deals with multiple myeloma cells U266. Briefly: MTT test, cell viability of U266 cells. In kind it is cell-based, human. The following applies: 10^−4 M, 10% FCS, FIG. 3A; for cytotoxicity at 100 µM: Homo sapiens, U-266, read-out: Block of U266 cell viability / cell killing. As for the experimental part:
as §1, §2
(§4) The MTT test was further extended to include alternative synephrine derivatives and a range of multiple myeloma cell lines for which the results are illustrated by FIGS. 3A, 3B and 4A. Human multiple myeloma cell lines L363, U266 and MM1.S were cultured in RPMI 1640 with Glutamax-I, supplemented with 10% FCS, 100 U/ml penicillin and 100 μg/ml streptomycin. Cells were seeded at 10000 cells/well in 96 well plates. Cells were incubated in the presence of test compounds or vehicle in a final volume of 0.2 ml for 24 or 48 hours at 37° C. The test compounds included in the test were the synephrine derivatives CpdA, Naphth, Benz and Isobut, and DEX as a comparative example. Subsequently, 20 μl of MTT solution (5 mg/ml in phosphate-buffered saline) was added to each well. After 4 hours incubation at 37° C., 80 μl of the extraction buffer (10% SDS, 0.01 M HCl) was added. After 48 hours incubation at room temperature, the optical densities at 590 nm were measured. Results are expressed as percentage of viable cells as compared to vehicle-treated controls.

Series [6] relates to L363 cell line. Briefly: MTT test, cell viability of L363 cells. In kind it is cell-based, human. To be noted: 10% FCS, FIG. 3B; for Cell killing of L363 cells: 10^−5 M; for cytotoxicity at 100 µM: Homo sapiens, L-363, read-out: Block of L363 cell viability. As for the experimental part:
as §1, §2, §4

The subject of series [7] is MM1.S cell line. Briefly: MTT test, cell viability of MM1.S cells. In kind it is cell-based, human. To be noted: 10% FCS, FIG. 4A. The method, then: as §1, §2, §4
Series [8] deals with B-CLL cells. Briefly: Annexin V/PI flow cytometric analysis of apoptosis in ex-vivo cultured B-CLL cells. In kind it is cell-based, human. To be noted: 24 hours. The method, then: Blood samples were obtained from B-CLL patients after informed consent according to institutional guidelines. CLL lymphocytes were isolated using Lymphoprep (Nycomed Pharma, Denmark) and re-suspended at a final concentration of 10−30×10^6 cells/ml in RPMI 1640 medium, supplemented with 10% heat-inactivated fetal bovine serum (FBS) (Greiner Bio-one, Wemmel, Belgium), 100 IU/ml penicillin, 100 μg/ml streptomycin, and 0.56 μg/mL fungizone (Gibco BRL, Merelbeke, Belgium). B-CLL cells were cultured in Dulbecco's Modified Eagle Medium (DMEM) (Gibco, Invitrogen Inc.) containing 10% FBS (Gibco, Invitrogen Inc.). For flow cytometric analysis of apoptosis, B-CLL cells were treated with the different compounds for 24 hours, 3×10^5 cells were removed from the culture medium, washed twice with cold PBS, and double stained with annexin V-fluorescein isothiocyanate (FITC) and propidium iodide (PI; Beckman Coulter, Miami, Fla.) in Annexin binding buffer, followed by analysis on a FC500PTM (Beckman Coulter, Nyon, Switzerland) flow cytometer. Flow cytometric data were analyzed using Cytomixs RXP software (Beckman Coulter, Nyon, Switzerland). To avoid non-specific fluorescence from dead cells, live cells were gated using forward and side scatter.
One of the early signs of apoptosis is the translocation of the membrane phospholipid phosphatidylserine from the cytoplasmic interface to the extracellular surface. Annexin V has a high affinity for the phospatidylserine-containing phospholipid bilayers. […] As the plasma membrane becomes increasingly permeable during the later stages of apoptosis, the DNA-binding dye PI can readily move across the cell membrane and bind to cellular DNA, providing a means to detect the loss of membrane integrity through mechanisms including necrosis. Three different cell populations can be observed in cells double-stained with AnnV-FITC and PI. […] Cells that stain with Ann V only are early apoptotic cells. And cells that stain with both AnnV and PI are late apoptotic/necrotic cells. The percentage of AnnV-positive B-CLL cells in the lymphocyte gate were measured by FACS and results were expressed as % apoptotic cells, i.e. sum of early apoptotic (AnnV+, PI−), and late apoptotic/dead cells (AnnV+, PI+). The percent of living cells was normalized to 100% living cells incubated in control medium with 0.1% EtOH. All measurements were made in duplicate and averaged.
In general terms: Flow cytometry measures light scatter and fluorescence of single cells or particles in a stream.

Series [9] has as its system MM1.S cell lines. Briefly: Annexin V/PI assay in MM1.S cells. In kind it is cell-based, human. To be noted: positive control, FIG. 13. The method, then:
1. […] Procedure: • Human multiple myeloma cell lines L363, U266, MM1.S and MMR.1 are cultured in RPMI 1640 with Glutamax-I, supplemented with 10% FCS, 100 U/ml penicillin and 100 μg/ml streptomycin. Cells are counted and resuspended in fresh medium at a concentration of 1×10^6/ml. Next, 1 ml of cell suspension is transferred to 5 ml culture tubes in the presence of test compounds (DEX, CpdA, CpdA analogues: 10^−7 to 10^−4 M) or vehicle (EtOH) and incubated for 24 or 48 hours at 37° C. • Double-staining of the cells with PI and annexin V is performed according to the instructions of the Annexin V kit (BD Biosciences). • Double-stained cells are analyzed by flow cytometry. […] Graphs are represented as the ratio of early apoptotic cells versus late apoptotic cells (a) or as total % of living cells (b).

Residues, ends and D or L forms follow the SMILES beside them. *: point of attachment. Cbz = O=C(OCc1ccccc1)* Bounds are passed on as bounds.

Regarding `CN(CC(OC(=O)n1ccnc1)c1ccc(OC(=O)c2ccccc2)cc1)C(=O)OC(C)(C)C` (centres unmarked) [Benz, 1-[4-(benzoyloxy)phenyl]-2-[(tert-butoxycarbonyl)-methylamino]ethyl-1H-imidazole-1-carboxylate], the cytotoxicity at 48 h is 10% in [1] and at most 20% in series [3]. Also, the “Block of A549 cell viability” value in [2] (10^−5 M, 24 hours, FIG. 6A) was “not able to block cell viability”. In addition, the “Inhibition of TNF-induced gene expression (E-selectin gene induction)” value (“Inhibition … (E-selectin gene induction)” below) in series [4] is “effectively inhibit TNF-induced E-selectin gene induction”. The cytotoxicity at 100 µM in series [5] and in series [6] (10^−4 M) was 90% each time. The “Cell killing of L363 cells” value in series [6] is on record as 40%. In [7] (10^−5 M), the “Inhibition of MM1.S cell viability” value is on record as “block cell viability completely”.
As for `O=C(O)CCCc1ccc(N(CCCl)CCCl)cc1` [Chlorambucil], in [8] (25 · 10^−7M), the “% apoptotic cells, CLL patient 1” value was determined as 51% and the “% apoptotic cells, CLL patient 2” value worked out at 46%.
For `Nc1nc(F)nc2c1ncn2[C@@H]1O[C@H](CO)[C@@H](O)[C@@H]1O` [Fludarabine], in series [8] (5 · 10^−6M), the “% apoptotic cells, CLL patient 1” value is 56% and the “% apoptotic cells, CLL patient 2” value was determined as 63%.
As for `CC(C)C(=O)Oc1ccc(C(CN(C)C(=O)OC(C)(C)C)OC(=O)n2ccnc2)cc1` (centres unmarked) [Isobut, 1-[4-(isobutanoyloxy)phenyl]-2-[(tert-butoxycarbonyl)-methylamino]ethyl-1H-imidazole-1-carboxylate], in [4], the “Inhibition … (E-selectin gene induction)” value is “effectively inhibit TNF-induced E-selectin gene induction”. The cytotoxicity at 100 µM in [5] and in series [6] (10^−4 M) was 80% each time. For the same molecule, the “Cell killing of L363 cells” value in series [6] amounted to 25%. Also, the “Inhibition of MM1.S cell viability” value in series [7] (10^−5 M) is recorded as “block cell viability completely”.
As to `CC(C)C[C@@H](C=O)NC(=O)[C@H](CC(C)C)NC(=O)[C@H](CC(C)C)NC(=O)OCc1ccccc1` [MG132, reference compound] (Cbz-Leu-Leu-Leu-aldehyde), the “Apoptosis (Annexin V/PI staining)” value in series [9] is given as “also mediates apoptosis”.
`CN(CC(OC(=O)n1ccnc1)c1ccc(OC(=O)c2cccc3ccccc23)cc1)C(=O)OC(C)(C)C` (centres unmarked) [Naphth, 1-[4-(1-naphthoyloxy)phenyl]-2-[(tert-butyloxycarbonyl)(methyl)amino]ethyl 1H-imida-zole-1-carboxylate]: the “Block of A549 cell viability” value is recorded as 20% in series [2] (10^−4 M, 48 hours, FIG. 6B); “about 10%” in series [2] (10^−5 M, 24 hours, FIG. 6A); “not more than 20%” in [2] (10^−5 M, 48 hours, FIG. 6B). The “Block of U266 cell viability / cell killing” value in series [5] is 70%. Also, the “Block of L363 cell viability” value in series [6] (10^−4 M) came to 90%. For the same molecule, the “Cell killing of L363 cells” value in series [6] was 40%. In addition, the “Inhibition of MM1.S cell viability” value is listed as “almost completely” in [7] (10^−4 M) and “about 35%” in [7] (10^−5 M).
As for `C[C@H]1C[C@@H]2[C@H]([C@@H](O)C[C@@]3(C)[C@H]2CC[C@]3(O)C(=O)COC(=O)CCC(=O)O)[C@@]2(C)C=CC(=O)C=C12` [Solumedrol], in series [8] (10^−7M), the “% apoptotic cells, CLL patient 1” value came out at 60% and the “% apoptotic cells, CLL patient 2” value came to 34%.
With `CCCCCC(=O)Oc1ccc(C(O)CN(C)C(=O)OC(C)(C)C)cc1` (centres unmarked) [example 6, 4-{2-[(tert-butoxycarbonyl)(methyl)amino]-1-hydroxyethyl}phenyl hexanoate], the “Inhibition … (E-selectin gene induction)” value in series [4] was “observed in a dose-responsive manner”.

(Values after US8039501B2, “Synephrine derivatives useful as anti-inflammatory agents” (Universiteit Gent, priority 2005, dated 2011).)
